≈ marks a conversion by molar mass, not a printed value. Calls of active or inactive are those of the source. The rule behind the calls is not given here.
Legend:
[1] = molecular target: Sigma intracellular receptor 2 (Homo sapiens, UniProt Q5BJF2); test: Inhibition of sigma 2 receptor (unknown origin) assessed as binding constant
[2] = Aqueous solubility of the compound at pH 4; settings: buffer
[3] = Aqueous solubility of the compound at pH 7.4; settings: buffer
[4] = Distribution coefficient, logD of compound at pH 7.4 by HPLC analysis; assay type: physicochemical; settings: octanol/water, read-out: logD
[5] = molecular target: Beta-3 adrenergic receptor (Homo sapiens, UniProt P13945); test: Inhibition of adrenergic beta 3 receptor (unknown origin) assessed as binding constant
[6] = molecular target: T1, liver carboxylesterase (Sus scrofa, UniProt Q29550); test: Stability of the compound in aqueous medium at pH 7.4 assessed as half life in presence of porcine liver esterase; assay type: physicochemical; settings: pig
T1 sequence (Q29550 whole entry): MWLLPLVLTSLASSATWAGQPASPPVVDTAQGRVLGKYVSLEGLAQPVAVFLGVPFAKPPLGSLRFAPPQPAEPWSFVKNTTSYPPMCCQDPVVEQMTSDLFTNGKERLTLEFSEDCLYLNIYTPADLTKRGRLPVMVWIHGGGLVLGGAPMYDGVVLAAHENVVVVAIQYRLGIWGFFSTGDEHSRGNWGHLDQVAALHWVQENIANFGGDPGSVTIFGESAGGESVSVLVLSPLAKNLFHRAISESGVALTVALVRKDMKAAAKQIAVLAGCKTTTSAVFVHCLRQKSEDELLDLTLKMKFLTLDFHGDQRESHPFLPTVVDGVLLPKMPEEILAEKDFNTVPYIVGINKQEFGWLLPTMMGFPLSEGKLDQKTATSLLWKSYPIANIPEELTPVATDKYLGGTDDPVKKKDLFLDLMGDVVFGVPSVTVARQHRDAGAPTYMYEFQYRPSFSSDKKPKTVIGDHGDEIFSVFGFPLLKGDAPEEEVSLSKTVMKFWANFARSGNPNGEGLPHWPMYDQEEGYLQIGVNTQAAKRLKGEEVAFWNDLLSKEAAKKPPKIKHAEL

[7] = Prodrug conversion in aqueous medium at pH 7.4 assessed as conversion of 4-(4-((1S,4S,5S)-2-(Ethoxycarbonyl)-2-azabicyclo[2.2.1]heptan-5-yl)phenyl)-7-(4-(trifluoro-methyl)phenyl)-2-naphthoic acid at 72 hrs by HPLC analysis; assay type: ADME; settings: buffer, pH 7.4, 72 h
[8] = tested on: Mus musculus; test: Antiinflammatory activity in C57BL/6J mouse model of ovalbumin/Aspergillus-induced allergic asthma assessed as reduction in recruitment of neutrophils into airway at 10 mg/kg, ip administered 30 mins prior to allergen challenge and measured after 16 days; assay type: functional, organism-based; settings: time 16.0 day
[9] = tested on: Mus musculus; test: Antiinflammatory activity in C57BL/6J mouse model of ovalbumin/Aspergillus-induced allergic asthma assessed as reduction in recruitment of eosinophils into airway at 10 mg/kg, ip administered 30 mins prior to allergen challenge and measured after 16 days; assay type: functional, organism-based; settings: time 16.0 day
[10] = tested on: Mus musculus; test: Antiinflammatory activity in C57BL/6J mouse model of ovalbumin/Aspergillus-induced allergic asthma assessed as reduction in recruitment of lymphocytes into airway at 10 mg/kg, ip administered 30 mins prior to allergen challenge and measured after 16 days; assay type: functional, organism-based; settings: time 16.0 day
[11] = molecular target: Sigma non-opioid intracellular receptor 1 (Homo sapiens, UniProt Q99720); test: Inhibition of sigma 1 receptor (unknown origin) assessed as binding constant
[12] = Plasma protein binding in human assessed as bound fraction; assay type: ADME, cell-free
[13] = Plasma protein binding in mouse assessed as compound remaining at 5 hrs; assay type: ADME, cell-free
[14] = Plasma protein binding in rat assessed as compound remaining at 5 hrs; assay type: ADME, cell-free
[15] = molecular target: D(1B) dopamine receptor (Homo sapiens, UniProt P21918); test: Inhibition of dopamine D5 receptor (unknown origin) assessed as binding constant
[16] = molecular target: D(3) dopamine receptor (Homo sapiens, UniProt P35462); test: Inhibition of dopamine D3 receptor (unknown origin) assessed as binding constant
[17] = molecular target: T2, P2Y purinoceptor 14 (Mus musculus, UniProt Q9ESG6); test: Inhibition of fluorescent antagonist binding to mouse P2Y14R expressed in HEK293 cells preincubated for 30 mins followed by addition of 6-amino-9-(2-carboxy-4-((6-(4-(4-(4-(4-(3-carboxy-6-(4-(trifluoromethyl)phenyl)naphthalen-1-yl)phenyl)piperidin-1-yl)butyl)-1H-1,2,3-triazol-1-yl)hexyl)carbamoyl)phenyl)-3-iminio-5-sulfo-3H-xanthene-4-sulfonate incubated for 30 mins by BD FACSCalibur flow …; assay type: cell-based
T2 sequence (Q9ESG6 whole entry): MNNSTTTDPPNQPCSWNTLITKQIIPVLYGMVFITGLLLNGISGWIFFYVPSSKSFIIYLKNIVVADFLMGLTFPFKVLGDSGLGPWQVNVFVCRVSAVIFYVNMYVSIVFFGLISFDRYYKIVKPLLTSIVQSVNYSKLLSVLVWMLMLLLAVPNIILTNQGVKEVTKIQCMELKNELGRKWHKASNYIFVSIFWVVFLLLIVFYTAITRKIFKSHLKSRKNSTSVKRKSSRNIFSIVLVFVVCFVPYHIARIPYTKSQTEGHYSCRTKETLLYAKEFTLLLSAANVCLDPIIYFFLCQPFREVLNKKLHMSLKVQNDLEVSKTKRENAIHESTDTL

[18] = molecular target: Translocator protein (Homo sapiens, UniProt P30536); test: Inhibition of TSPO receptor (unknown origin) assessed as binding constant
[19] = molecular target: Kappa-type opioid receptor (Homo sapiens, UniProt P41145); test: Inhibition of KOR (unknown origin) assessed as binding constant
Chain of Kappa-type opioid receptor (P41145 whole entry): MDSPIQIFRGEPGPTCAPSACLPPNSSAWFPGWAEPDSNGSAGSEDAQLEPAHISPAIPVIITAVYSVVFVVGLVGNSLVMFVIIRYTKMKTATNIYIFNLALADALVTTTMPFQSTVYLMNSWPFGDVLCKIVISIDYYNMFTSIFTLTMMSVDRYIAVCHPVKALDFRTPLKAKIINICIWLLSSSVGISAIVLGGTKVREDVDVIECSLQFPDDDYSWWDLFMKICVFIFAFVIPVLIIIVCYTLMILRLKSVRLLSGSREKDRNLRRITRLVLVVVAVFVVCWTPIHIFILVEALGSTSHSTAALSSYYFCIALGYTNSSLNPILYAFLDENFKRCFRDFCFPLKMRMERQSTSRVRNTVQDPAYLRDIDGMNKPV

Chain of Sigma intracellular receptor 2 (Q5BJF2 whole entry): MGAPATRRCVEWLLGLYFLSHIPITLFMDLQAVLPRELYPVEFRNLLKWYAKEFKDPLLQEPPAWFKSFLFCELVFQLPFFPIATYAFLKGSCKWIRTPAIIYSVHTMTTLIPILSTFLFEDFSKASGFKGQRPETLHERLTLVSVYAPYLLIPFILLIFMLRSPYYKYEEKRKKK
Chain of Sigma non-opioid intracellular receptor 1 (Q99720 whole entry): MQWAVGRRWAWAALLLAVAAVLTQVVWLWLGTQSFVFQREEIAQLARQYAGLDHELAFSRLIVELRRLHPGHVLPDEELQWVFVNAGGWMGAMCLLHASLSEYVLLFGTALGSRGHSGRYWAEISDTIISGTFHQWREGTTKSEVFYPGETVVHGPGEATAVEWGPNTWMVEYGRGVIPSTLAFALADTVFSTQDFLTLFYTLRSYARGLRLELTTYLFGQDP
Chain of Beta-3 adrenergic receptor (P13945 whole entry): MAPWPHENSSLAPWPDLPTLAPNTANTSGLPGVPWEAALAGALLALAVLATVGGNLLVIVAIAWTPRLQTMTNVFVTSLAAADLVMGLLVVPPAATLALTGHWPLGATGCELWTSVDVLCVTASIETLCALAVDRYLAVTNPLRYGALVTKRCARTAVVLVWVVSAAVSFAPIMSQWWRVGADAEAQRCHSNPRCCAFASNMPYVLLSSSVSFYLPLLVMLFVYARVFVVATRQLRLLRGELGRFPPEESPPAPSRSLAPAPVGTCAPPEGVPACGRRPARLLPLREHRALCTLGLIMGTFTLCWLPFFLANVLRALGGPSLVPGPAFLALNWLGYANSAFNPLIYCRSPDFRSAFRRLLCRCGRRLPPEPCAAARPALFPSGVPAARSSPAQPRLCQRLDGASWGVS
Chain of Translocator protein (P30536 whole entry): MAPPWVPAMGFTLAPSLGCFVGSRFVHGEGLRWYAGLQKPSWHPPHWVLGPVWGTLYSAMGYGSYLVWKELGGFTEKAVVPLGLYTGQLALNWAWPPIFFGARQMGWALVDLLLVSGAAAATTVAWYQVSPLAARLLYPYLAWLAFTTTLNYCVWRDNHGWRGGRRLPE
Chain of D(1B) dopamine receptor (P21918 whole entry): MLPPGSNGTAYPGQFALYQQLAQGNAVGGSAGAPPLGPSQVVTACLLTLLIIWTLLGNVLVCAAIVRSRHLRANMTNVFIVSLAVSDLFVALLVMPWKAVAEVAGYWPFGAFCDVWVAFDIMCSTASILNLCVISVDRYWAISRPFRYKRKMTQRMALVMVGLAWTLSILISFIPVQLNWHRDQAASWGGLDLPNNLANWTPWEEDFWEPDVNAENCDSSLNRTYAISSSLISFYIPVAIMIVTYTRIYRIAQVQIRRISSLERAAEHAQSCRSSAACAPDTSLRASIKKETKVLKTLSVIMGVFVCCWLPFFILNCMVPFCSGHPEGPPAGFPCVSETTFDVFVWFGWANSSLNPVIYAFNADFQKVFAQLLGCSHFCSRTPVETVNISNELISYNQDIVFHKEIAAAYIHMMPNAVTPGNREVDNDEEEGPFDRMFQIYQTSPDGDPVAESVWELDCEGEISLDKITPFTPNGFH
Chain of D(3) dopamine receptor (P35462 whole entry): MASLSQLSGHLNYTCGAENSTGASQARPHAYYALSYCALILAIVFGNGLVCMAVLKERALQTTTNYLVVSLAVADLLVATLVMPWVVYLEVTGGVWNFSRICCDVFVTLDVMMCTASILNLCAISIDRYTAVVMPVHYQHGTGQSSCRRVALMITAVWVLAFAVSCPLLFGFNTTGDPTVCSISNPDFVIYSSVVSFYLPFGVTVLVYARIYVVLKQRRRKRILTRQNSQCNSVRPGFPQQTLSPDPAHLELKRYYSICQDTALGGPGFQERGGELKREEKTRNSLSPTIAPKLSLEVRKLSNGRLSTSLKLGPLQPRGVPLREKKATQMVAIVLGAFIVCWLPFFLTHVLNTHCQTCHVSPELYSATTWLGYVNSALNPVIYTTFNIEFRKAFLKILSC

SMILES | Ki [1] | logD [4] | Ki [5] | half-life [6] | Ki [11] | also measured
O=C(O)c1cc(-c2ccc([C@H]3C[C@H]4C[C@@H]3CN4)cc2)c2ccc(-c3ccc(C(F)(F)F)cc3)cc2c1 (racemic) | 650 nM | 2 | > 1000 nM |  |  | solubility [2]: 2.73 µg/mL (≈ 5.6 µM); solubility [3]: 0.47 µg/mL (≈ 0.964 µM)
CN(C)C(=O)COC(=O)c1cc(-c2ccc([C@@H]3C[C@@H]4C[C@H]3C(=O)N4)cc2)c2ccc(-c3ccc(C(F)(F)F)cc3)cc2c1 |  |  |  | > 72 h |  | 
CCOC(=O)N1C[C@H]2C[C@@H]1C[C@@H]2c1ccc(-c2cc(C(=O)OCC(=O)N(C)C)cc3cc(-c4ccc(C(F)(F)F)cc4)ccc23)cc1 |  | 6 |  | > 72 h |  | Drug metabolism [7]: 3%; Activity [8]: Active; Activity [9]: Active; Activity [10]: Active
O=C(O)c1cc(-c2ccc([C@@H]3C[C@@H]4C[C@H]3C(=O)N4)cc2)c2ccc(-c3ccc(C(F)(F)F)cc3)cc2c1 | 1900 nM | 0.49 | > 1000 nM |  | 3200 nM | 
CN(C)C(=O)COC(=O)c1cc(-c2ccc([C@@H]3C[C@@H]4C[C@H]3NC4=O)cc2)c2ccc(-c3ccc(C(F)(F)F)cc3)cc2c1 |  |  |  | > 72 h | 6900 nM | PPB [12]: 99.79%; Fu [13]: 0%; Fu [14]: 0%
O=C(O)c1cc(-c2ccc([C@@H]3C[C@@H]4C[C@H]3CN4)cc2)c2ccc(-c3ccc(C(F)(F)F)cc3)cc2c1 | 1200 nM |  | > 1000 nM |  | 2100 nM | Ki [15]: > 1000 nM; Ki [16]: 1000 nM; IC50 [17]: 13.4 nM; Ki [18]: 1800 nM
O=C(O)c1cc(-c2ccc(C3CCNC3)cc2)c2ccc(-c3ccc(C(F)(F)F)cc3)cc2c1 (racemic) | 1200 nM | 1.9 |  |  |  | Ki [19]: > 1000 nM
O=C(O)c1cc(-c2ccc([C@H]3C[C@H]4C[C@@H]3NC4=O)cc2)c2ccc(-c3ccc(C(F)(F)F)cc3)cc2c1 | 1400 nM |  | > 1000 nM |  | 2600 nM | Ki [15]: > 1000 nM; Ki [18]: 1400 nM

Source: ChEMBL document CHEMBL5042543, “Bridged Piperidine Analogues of a High Affinity Naphthalene-Based P2Y14R Antagonist” (J Med Chem, 2022)
